According to US6822064B1, “Polymerizable macromers and preparation thereof” (Council of Scientific and Industrial Research, priority 2003, dated 2004):

Molecular target: lysozyme (Gallus gallus, UniProt P00698)
Assay: Estimation of relative inhibition of lysozyme (Micrococcus lysodeikticus substrate, absorbance at 450 nm)
Assay type: biochemical
Conditions: for ligand concentration at maximum inhibition: ligand concentration at which the maximum inhibition is achieved; for Imax: maximum relative inhibition of lysozyme
Text: This example describes the estimation of inhibition of lysozyme by monomers, oligomers and macromer. I50 denotes the concentration of the ligand containing NAG at which 50% of the highest achievable inhibition is achieved. Imax denotes the ligand concentration at which the maximum inhibition is achieved.
Micrococcus lysodeikticus is a substrate for the enzyme lysozyme. Relative binding of macromers was estimated by using a procedure reported by Neuberger and Wilson (1967).
1.5% w/v stock solutions of macromer was prepared in 0.0066 M phosphate buffer pH 6.2 containing 0.0154 m sodium chloride and 0.008 M sodium azide. One milliliter of stock solution containing different ligand concentration was mixed with 1.6 ml of 78 μg/ml of Micrococcus lysodeikticus in a 3-ml capacity glass cuvette. The mixture was incubated for 5 minutes at 20° C. To this mixture 0.1 ml of lysozyme (27 μg/ml) was added and mixed thoroughly. The relative absorbance at 450 nm (Δ450) was recorded for 30 seconds. A blank reading without the ligand was noted and the change in the absorbance per second was calculated. Then relative inhibition was calculated.

Sequence of lysozyme (P00698 19-147): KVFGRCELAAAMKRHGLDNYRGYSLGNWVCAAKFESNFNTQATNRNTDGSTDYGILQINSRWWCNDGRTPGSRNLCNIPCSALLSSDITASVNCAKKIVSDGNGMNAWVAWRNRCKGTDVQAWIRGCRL

SMILES | IC50 (ligand concentration at which 50% of the highest achievable inhibition is achieved, pH 6.2, 20° C., read-out: I50) | ligand concentration at maximum inhibition | Imax
C=CC(=O)OC[C@H]1OC(O)[C@H](NC(C)=O)[C@@H](O)[C@@H]1O (some centres unmarked) [Ac. NAG, Acryloyl N-Acetyl Glucosamine] | 14.8 mM | 14.81 mM | 50.00
CC(=O)N[C@H]1C(O)O[C@H](CO)[C@@H](O)[C@@H]1O (some centres unmarked) [NAG, N-Acetyl Glucosamine, reference compound] | – | 92.50 mM | 55.29
